The results in this text go back to US10611750B2, “Tetrahydroquinoline compositions as bet bromodomain inhibitors” (FORMA Therapeutics, Inc., priority 2013, dated 2020).

Test [1] concerns acute myelocytic leukemia (AML) cell line MV4-11. Nature of the test: Oncology cell growth assay (3-day proliferation, CellTiter-Glo). Format: cell-based. To be noted: Homo sapiens, MV4-11, 72 h, MV4-11 cells, 3000 cells/well, compounds listed under IC50 range headings, read-out: MV411 IC50 (gIC50, inhibition of proliferation). Here is the method: The impact of Example compounds on cancer cell proliferation was determined using the acute myelocytic leukemia (AML) cell line MV4-11 (ATCC) in a 3-day proliferation assay. MV4-11 cells were maintained in RPMI 1640 media supplemented with 10% FBS at 37° C. and an atmosphere of 5% CO2. For compound testing, compound dilutions series were prepared in DMSO via a 3-fold serial dilution from 2 mM to 0.001 mM in 384-well white flat bottom plates. The final compound concentrations in the wells were 10, 3.3, 1.1, 0.37, 0.12, 0.041, 0.013 and 0.0045 μM. MV4-11 cells were plated at a density of 3000 cells/well in final volume of 50 μl culture media and incubated for 72 hours. […] Luminescent signal from the CellTiter-Glo assay was read on an EnVision multilabel plate reader (PerkinElmer). Values for the concentration that inhibited cell growth by 50% (gIC50) between the DMSO control and background control (no cells) were determined using IDBS Activity Base software with a four parameter logistic curve fit by the equation y=A+((B−A)/(1+((C/x)^D))), wherein A denotes the bottom plateau of the curve, B denotes the top plateau of the curve, C denotes the x value at the middle of the curve, D denotes the slope factor, x denotes the original known x values, and y denotes the original known y values. Data was fitted using the Levenburg Marquardt algorithm.
A general note: Cellular ATP, detected with luciferase, serves as a proxy for viable cell number.

The target in test [2] is T1, BRD4 Bromodomain 1 (BRD4 BD1) (Homo sapiens, UniProt O60885).
T1 construct: 44-168 and BRD4 BD2
As to the kind of experiment: AlphaScreen binding assay, BRD4 BD1. As to conditions: His-tagged BRD4 BD1 50 nM, biotinylated H4 (1-21) K5/8/12/16 tetra-acetylated peptide 50 nM, compounds listed under IC50 range headings. Here is the method:
The binding of Example compounds to BRD4 Bromodomain 1 and BRD4 Bromodomain 2 was assessed using 384-well AlphaScreen assay technology. His-epitope tagged BRD4 BD144-168 and BRD4 BD2333-460 were cloned, expressed, and purified to homogeneity. BRD4 BD1 and BRD4 BD2 binding and inhibition was assessed by monitoring the engagement of biotinylated Histone H4 (1-21) K5/8/12/16 tetra-acetylated peptide with the targets using the AlphaScreen technology (PerkinElmer). Specifically, in a 384-well black or white flat bottom plate, BRD4 BD1 (50 nM final) or BRD4 BD2 (100 nM final) was combined with peptide (50 nM final for BD1 or 100 nM final for BD2) in 50 mM HEPES (pH 7.3), 100 mM NaCl, 0.1% (w/v) BSA, and 0.01% (w/v) Triton X-100 either in the presence of DMSO (final 1.25% DMSO) or compound dilution series in DMSO. Alpha streptavidin donor beads and Nickel-chelate acceptor beads were added to a final concentration of 10 μg/ml each. After a minimum of 1 hour equilibration, plates were read on a BMG PHERAstar FS multi-label reader (BMG LabTech). The half maximal inhibitory concentration (IC50) values were calculated using IDBS Activity Base software with a four parameter logistic curve fit by the equation y=A+((B−A)/(1+((C/x)^D))), wherein A denotes the bottom plateau of the curve, B denotes the top plateau of the curve, C denotes the x value at the middle of the curve, D denotes the slope factor, x denotes the original known x values, and y denotes the original known y values. Data was fitted using the Levenburg Marquardt algorithm.

`C[C@H]1CCc2c(ccc(-c3cnoc3)c2OC2CCC2)N1C(=O)C1CC1` [I-123, (S)-(5-cyclobutoxy-6-(isoxazol-4-yl)-2-methyl-3,4-dihydroquinolin-1(2H)-yl)(cyclopropyl)methanone]: the IC50 is above 1000 nM in test [1] and 1000 to 10000 nM in test [2].
On the same counts, the results for `C[C@H]1CCc2c(OC3CCC3)c(-c3cn(C)nn3)cc(F)c2N1C(=O)C1CC1` [I-124, (S)-(5-cyclobutoxy-8-fluoro-2-methyl-6-(1-methyl-1H-1,2,3-triazol-4-yl)-3,4-dihydroquinolin-1 (2H)-yl)(cyclopropyl)methanone] are 500 to 1000 nM and 100 to 1000 nM.
On to `COC(=O)N1c2c(F)cc(-c3cn(C)nn3)c(OC3CCC3)c2CC[C@@H]1C` [I-125, (S)-methyl 5-cyclobutoxy-8-fluoro-2-methyl-6-(1-methyl-1H-1,2,3-triazol-4-yl)-3,4-dihydroquinoline-1(2H)-carboxylate], for which the values for the IC50 in test [1] and in test [2] were above 1000 nM and 1000 to 10000 nM, respectively.
Turning to `CC(=O)N1c2c(F)cc(-c3cn(C)nn3)c(OC3CCC3)c2CC[C@@H]1C` [I-126, (S)-1-(5-cyclobutoxy-8-fluoro-2-methyl-6-(1-methyl-1H-1,2,3-triazol-4-yl)-3,4-dihydroquinolin-1(2H)-yl)ethanone], the IC50 in test [1] is above 1000 nM; in test [2], 1000 to 10000 nM.
For the compound `C[C@H]1CCc2c(ccc(-c3nnc(N)s3)c2OC2CCC2)N1C(=O)C1CC1` [I-127, (S)-(6-(5-amino-1,3,4-thiadiazol-2-yl)-5-cyclobutoxy-2-methyl-3,4-dihydroquinolin-1(2H)-yl)(cyclopropyl)methanone], the IC50 in test [1] was below 500 nM; in test [2] it was 100 to 1000 nM.
As to `C[C@H]1CCc2c(ccc(-c3c[nH]nn3)c2OC2CCC2)N1C(=O)C1CC1` [I-128, (S)-(5-cyclobutoxy-2-methyl-6-(1H-1,2,3-triazol-4-yl)-3,4-dihydroquinolin-1(2H)-yl)(cyclopropyl)methanone], the IC50 was in the range of 500 to 1000 nM in test [1] and 100 to 1000 nM in test [2].
Turning to `COC(=O)N1c2ccc(-c3csc(C(N)=O)n3)c(OC3CCC3)c2CC[C@@H]1C` [I-129, (S)-methyl-6-(2-carbamoylthiazol-4-yl)-5-cyclobutoxy-2-methyl-3,4-dihydroquinoline-1(2H)-carboxylate], the IC50 in test [1] was below 500 nM; in test [2], 100 to 1000 nM.
On the same counts, the results for `CNC(=O)c1nc(-c2ccc3c(c2OC2CCC2)CC[C@H](C)N3C(=O)OC)cs1` [I-130, (S)-methyl 5-cyclobutoxy-2-methyl-6-(2-(methylcarbamoyl)thiazol-4-yl)-3,4-dihydroquinoline-1(2H)-carboxylate] are below 500 nM and 100 to 1000 nM.
`COC(=O)N1c2ccc(-c3csc(NC(C)=O)n3)c(OC3CCC3)c2CC[C@@H]1C` [I-131, (S)-methyl 6-(2-acetamidothiazol-4-yl)-5-cyclobutoxy-2-methyl-3,4-dihydroquinoline-1(2H)-carboxylate]: the IC50 was in the range of 500 to 1000 nM in test [1] and 1000 to 10000 nM in test [2].
On the same counts, the results for `C[C@H]1CCc2c(ccc(-c3cn(C)nn3)c2Oc2ccccc2C#N)N1C(=O)C1CC1` [I-154, (S)-2-(1-(cyclopropanecarbonyl)-2-methyl-6-(1-methyl-1H-1,2,3-triazol-4-yl)-1,2,3,4-tetrahydroquinolin-5-yloxy)benzonitrile] are below 500 nM and 1000 to 10000 nM.
Regarding `COc1cccc(Oc2c(-c3cnn(C4CCNCC4)c3)ccc3c2CC[C@H](C)N3C(C)=O)c1` [I-156, (S)-1-(5-(3-methoxyphenoxy)-2-methyl-6-(1-(piperidin-4-yl)-1H-pyrazol-4-yl)-3,4-dihydroquinolin-1(2H)-yl)ethanone], the IC50 was below 500 nM in test [1] and 100 to 1000 nM in test [2].
Turning to `C[C@H]1CCc2c(ccc(-c3cnn(C4CCNCC4)c3)c2Oc2ccccc2Cl)N1C(=O)C1CC1` [I-165, (S)-(5-(2-chlorophenoxy)-2-methyl-6-(1-(piperidin-4-yl)-1H-pyrazol-4-yl)-3,4-dihydroquinolin-1(2H)-yl)(cyclopropyl)methanone], the IC50 is below 500 nM in test [1] and 100 to 1000 nM in test [2].
On the same counts, the results for `C[C@H]1CCc2c(ccc(-c3cnn(C4CCNCC4)c3)c2Oc2cccc(F)c2)N1C(=O)C1CC1` [I-171, (S)-cyclopropyl(5-(3-fluorophenoxy)-2-methyl-6-(1-(piperidin-4-yl)-1H-pyrazol-4-yl)-3,4-dihydroquinolin-1(2H)-yl)methanone] are below 500 nM and 100 to 1000 nM.
`C[C@H]1CCc2c(ccc(-c3cnn(C4CCNCC4)c3)c2Oc2ccc(F)c(F)c2)N1C(=O)C1CC1` [I-172, (S)-cyclopropyl(5-(3,4-difluorophenoxy)-2-methyl-6-(1-(piperidin-4-yl)-1H-pyrazol-4-yl)-3,4-dihydroquinolin-1(2H)-yl)methanone]: the IC50 was below 500 nM in test [1] and 100 to 1000 nM in test [2].
On the same counts, the results for `C[C@H]1CCc2c(ccc(-c3cnn(C4CNC4)c3)c2Oc2cccc(F)c2)N1C(=O)C1CC1` [I-173, (S)-(6-(1-(azetidin-3-yl)-1H-pyrazol-4-yl)-5-(3-fluorophenoxy)-2-methyl-3,4-dihydroquinolin-1(2H)-yl)(cyclopropyl)methanone] are below 500 nM and 100 to 1000 nM.
On the same counts, the results for `C[C@H]1CCc2c(ccc(-c3cnn(C4CNC4)c3)c2Oc2ccc(F)c(F)c2)N1C(=O)C1CC1` [I-174, (S)-(6-(1-(azetidin-3-yl)-1H-pyrazol-4-yl)-5-(3,4-difluorophenoxy)-2-methyl-3,4-dihydroquinolin-1(2H)-yl)(cyclopropyl)methanone] are below 500 nM and 100 to 1000 nM.
On the same counts, the results for `C[C@H]1CCc2c(ccc(-c3cnn(C4CNC4)c3)c2Oc2ccccc2)N1C(=O)C1CC1` [I-175, (S)-(6-(1-(azetidin-3-yl)-1H-pyrazol-4-yl)-2-methyl-5-phenoxy-3,4-dihydroquinolin-1(2H)-yl)(cyclopropyl)methanone] are below 500 nM and 100 to 1000 nM.
`COC(=O)N1c2ccc(-c3cnn(C4CCNCC4)c3)c(Oc3ccc(F)c(F)c3)c2CC[C@@H]1C` [I-176, (S)-methyl 5-(3,4-difluorophenoxy)-2-methyl-6-(1-(piperidin-4-yl)-1H-pyrazol-4-yl)-3,4-dihydroquinoline-1(2H)-carboxylate]: the results for the IC50 in test [1] and in test [2] were below 500 nM and 100 to 1000 nM, respectively.
With `COC(=O)N1c2ccc(-c3cnn(C4CNC4)c3)c(Oc3cccc(Cl)c3)c2CC[C@@H]1C` [I-177, (S)-methyl 6-(1-(azetidin-3-yl)-1H-pyrazol-4-yl)-5-(3-chlorophenoxy)-2-methyl-3,4-dihydroquinoline-1(2H)-carboxylate], the IC50 in test [1] is below 500 nM; in test [2], 100 to 1000 nM.
As to `C[C@H]1CCc2c(ccc(-c3cnn(C4CNC4)c3)c2Oc2cccc(Cl)c2)N1C(=O)C1CC1` [I-178, (S)-(6-(1-(azetidin-3-yl)-1H-pyrazol-4-yl)-5-(3-chlorophenoxy)-2-methyl-3,4-dihydroquinolin-1 (2H)-yl)(cyclopropyl)methanone], the values for the IC50 in test [1] and in test [2] were below 500 nM and 100 to 1000 nM, respectively.
For the compound `C[C@H]1CCc2c(ccc(-c3cnn(C4CCNCC4)c3)c2Oc2cccc(Cl)c2)N1C(=O)C1CC1` [I-179, (S)-(5-(3-chlorophenoxy)-2-methyl-6-(1-(piperidin-4-yl)-1H-pyrazol-4-yl)-3,4-dihydroquinolin-1 (2H)-yl)(cyclopropyl)methanone], the IC50 in test [1] was below 500 nM; in test [2], 100 to 1000 nM.
On the same counts, the results for `COC(=O)N1c2ccc(-c3cnn(C4CNC4)c3)c(Oc3cc(F)cc(F)c3)c2CC[C@@H]1C` [I-180, (S)-methyl 6-(1-(azetidin-3-yl)-1H-pyrazol-4-yl)-5-(3,5-difluorophenoxy)-2-methyl-3,4-dihydroquinoline-1(2H)-carboxylate] are below 500 nM and 100 to 1000 nM.
